In paper PMC9080233, “Synthesis and biological evaluation of novel quinolone derivatives dual targeting histone deacetylase and tubulin polymerization as antiproliferative agents” (RSC Advances, 2018):
Like-named read-outs stand apart in the source and are kept apart here.

Legend:
[1] = system: breast cancer cells MCF-7; assay: Antiproliferative activity, CCK-8 assay, MCF-7; assay type: cell-based; conditions: Homo sapiens, MCF7; CCK-8, 72 hours; mean ± SD
Protocol: (§1) Antitumor activities in vitro of synthetic compounds were measured using CCK-8 Assay Kit (BPS Bioscience, CA) according to the manufacturer's protocol. […] Control cells were treated with serum free medium. Then CCK-8 solution was added to each well to determine cell viability. The IC50 values were calculated according to the dose-dependent curves (Origin software). IC50 values were determined using nonlinear regression analysis.

human recombinant HDAC6 = biological target: T1, human recombinant HDAC6 (Homo sapiens, UniProt Q9UBN7); assay: HDAC activity assay (fluorogenic HDAC assay kit), HDAC6; assay type: biochemical; conditions: for IC50: human recombinant HDAC6, 37 °C, 30 min; for Selectivity index HDAC6/1: ratio of IC50 HDAC1 to IC50 HDAC6; for Selectivity index HDAC6/2: ratio of IC50 HDAC2 to IC50 HDAC6;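 for all read-outs here: underlying HDAC activity read as fluorescence, excitation 350 nm and emission 440 nm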
T1 construct: purchased BPS Bioscience, CA
T1 sequence (Q9UBN7 1-1215): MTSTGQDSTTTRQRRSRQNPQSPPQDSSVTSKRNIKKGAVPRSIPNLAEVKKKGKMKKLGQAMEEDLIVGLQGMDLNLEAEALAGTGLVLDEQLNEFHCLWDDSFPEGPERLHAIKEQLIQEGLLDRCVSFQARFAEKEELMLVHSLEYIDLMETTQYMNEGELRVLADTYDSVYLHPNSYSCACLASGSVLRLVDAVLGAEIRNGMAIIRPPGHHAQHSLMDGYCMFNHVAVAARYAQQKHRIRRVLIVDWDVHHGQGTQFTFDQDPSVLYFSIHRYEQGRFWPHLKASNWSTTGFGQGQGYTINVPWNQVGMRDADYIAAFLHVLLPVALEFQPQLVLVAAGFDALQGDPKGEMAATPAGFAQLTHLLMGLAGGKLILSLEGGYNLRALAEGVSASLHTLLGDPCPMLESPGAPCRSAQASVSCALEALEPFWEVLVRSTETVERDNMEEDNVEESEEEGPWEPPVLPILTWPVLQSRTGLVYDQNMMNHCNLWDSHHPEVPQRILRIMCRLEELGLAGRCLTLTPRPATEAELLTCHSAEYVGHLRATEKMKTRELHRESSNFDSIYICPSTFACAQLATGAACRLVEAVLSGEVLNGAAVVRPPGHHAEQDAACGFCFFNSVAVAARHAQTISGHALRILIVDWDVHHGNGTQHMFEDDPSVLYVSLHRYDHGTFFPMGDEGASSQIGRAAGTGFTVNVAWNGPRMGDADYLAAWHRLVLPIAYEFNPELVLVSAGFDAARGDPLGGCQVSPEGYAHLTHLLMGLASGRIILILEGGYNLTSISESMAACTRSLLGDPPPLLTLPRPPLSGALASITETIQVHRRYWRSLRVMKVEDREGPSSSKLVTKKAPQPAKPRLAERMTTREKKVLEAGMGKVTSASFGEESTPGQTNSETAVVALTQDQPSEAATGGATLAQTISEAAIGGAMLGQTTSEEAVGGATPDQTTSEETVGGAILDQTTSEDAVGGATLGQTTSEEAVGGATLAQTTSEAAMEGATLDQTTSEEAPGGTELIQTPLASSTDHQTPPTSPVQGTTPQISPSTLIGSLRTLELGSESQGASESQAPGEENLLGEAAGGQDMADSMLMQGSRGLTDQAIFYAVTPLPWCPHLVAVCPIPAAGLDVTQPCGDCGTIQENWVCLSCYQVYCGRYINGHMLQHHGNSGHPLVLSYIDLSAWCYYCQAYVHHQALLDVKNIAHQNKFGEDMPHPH
Protocol: (§2) HDAC activity was measured using fluorogenic HDACs assay kit (BPS Bioscience, CA) according to the manufacturer's protocol. […] Fluorescence values were measured at an excitation of 350 nm and an emission of 440 nm using SpectraMax M2 microplate reader. IC50 values were calculated using Origin software. IC50 values were determined using nonlinear regression analysis.

human recombinant HDAC1 = biological target: T2, human recombinant HDAC1 (Homo sapiens, UniProt Q13547); assay: HDAC activity assay (fluorogenic HDAC assay kit), HDAC1; assay type: biochemical; conditions: for IC50: human recombinant HDAC1, 37 °C, 30 min
T2 construct: purchased BPS Bioscience, CA
Protocol: as §2

human recombinant HDAC2 = biological target: T3, human recombinant HDAC2 (Homo sapiens, UniProt Q92769); assay: HDAC activity assay (fluorogenic HDAC assay kit), HDAC2; assay type: biochemical; conditions: for IC50: human recombinant HDAC2, 37 °C, 30 min
T3 construct: purchased BPS Bioscience, CA
Protocol: as §2

healthy MCF-10A cells = assay: Toxicity to healthy cells, CCK-8 assay, MCF-10A; assay type: cell-based; conditions: for IC50: Homo sapiens, MCF-10A, healthy cells, CCK-8, 72 hours, >100 = not determinable up to highest concentrations tested
Protocol: as §1

liver cancer cells HepG2 = assay: Antiproliferative activity, CCK-8 assay, HepG2; assay type: cell-based; conditions: Homo sapiens, CCK-8, 72 hours, mean ± SD
Protocol: as §1

[2] = system: human lung adenocarcinoma cells A549; assay: Antiproliferative activity, CCK-8 assay, A549; assay type: cell-based; conditions: CCK-8, 72 hours, mean ± SD
Protocol: as §1

[3] = system: prostate cancer cells PC-3; assay: Antiproliferative activity, CCK-8 assay, PC-3; assay type: cell-based; conditions: Homo sapiens; CCK-8, 72 hours; mean ± SD
Protocol: as §1

[4] = system: human cervical carcinoma cells HeLa; assay: Antiproliferative activity, CCK-8 assay, HeLa; assay type: cell-based; conditions: read-out: IC50 HeLa
Protocol: Antitumor activities in vitro of synthetic compounds were measured using CCK-8 Assay Kit (BPS Bioscience, CA) according to the manufacturer's protocol. Cells were plated into 96-well plates with appropriate test compounds for 72 hours. Control cells were treated with serum free medium. Then CCK-8 solution was added to each well to determine cell viability. The IC50 values were calculated according to the dose-dependent curves (Origin software). IC50 values were determined using nonlinear regression analysis.

[5] = amide group of 9c replaced with ester group

T3 sequence (Q92769 whole entry): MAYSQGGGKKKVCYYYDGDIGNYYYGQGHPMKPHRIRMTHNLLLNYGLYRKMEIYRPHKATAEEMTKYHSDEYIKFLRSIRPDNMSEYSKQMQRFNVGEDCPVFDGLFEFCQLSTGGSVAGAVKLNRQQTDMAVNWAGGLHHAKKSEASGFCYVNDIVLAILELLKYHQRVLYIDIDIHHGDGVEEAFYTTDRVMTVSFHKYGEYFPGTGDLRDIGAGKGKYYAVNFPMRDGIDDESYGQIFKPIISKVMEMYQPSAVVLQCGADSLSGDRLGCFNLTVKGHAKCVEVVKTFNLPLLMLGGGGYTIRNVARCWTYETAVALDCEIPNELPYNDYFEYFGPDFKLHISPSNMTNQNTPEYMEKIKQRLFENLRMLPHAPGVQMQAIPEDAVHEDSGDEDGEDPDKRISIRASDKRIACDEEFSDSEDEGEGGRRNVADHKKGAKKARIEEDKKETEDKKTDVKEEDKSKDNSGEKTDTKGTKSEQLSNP
T2 sequence (Q13547 whole entry): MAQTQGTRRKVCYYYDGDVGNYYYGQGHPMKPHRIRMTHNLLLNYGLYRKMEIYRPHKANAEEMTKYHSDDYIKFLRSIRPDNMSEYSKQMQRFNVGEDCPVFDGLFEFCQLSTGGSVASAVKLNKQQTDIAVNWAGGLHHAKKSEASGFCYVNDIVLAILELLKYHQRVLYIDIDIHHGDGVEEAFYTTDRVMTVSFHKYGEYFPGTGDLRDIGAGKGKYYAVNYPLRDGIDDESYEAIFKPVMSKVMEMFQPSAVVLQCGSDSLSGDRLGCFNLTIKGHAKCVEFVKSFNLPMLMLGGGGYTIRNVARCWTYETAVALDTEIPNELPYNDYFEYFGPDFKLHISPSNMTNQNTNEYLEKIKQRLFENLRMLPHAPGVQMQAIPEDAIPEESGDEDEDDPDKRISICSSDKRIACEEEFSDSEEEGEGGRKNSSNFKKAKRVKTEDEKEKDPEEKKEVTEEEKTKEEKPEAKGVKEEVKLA

| SMILES | IC50 [1] [µM] | IC50 (human recombinant HDAC6) [µM] | Selectivity index HDAC6/1 (human recombinant HDAC6) | Selectivity index HDAC6/2 (human recombinant HDAC6) | IC50 (human recombinant HDAC1) [µM] | IC50 (human recombinant HDAC2) [µM] | melting point [°C] | IC50 (healthy MCF-10A cells) [µM] | IC50 (liver cancer cells HepG2) [µM] | IC50 [2] [µM] | IC50 [3] [µM] | IC50 ([4]; CCK-8, 72 hours, mean ± SD) [µM] | toxicity to healthy MCF-10A cells (healthy MCF-10A cells; in words) | toxicity to healthy VERO cells (healthy MCF-10A cells; in words, conclusions) | IC50 ([4]; 72 h) [µM] | fold reduced potency anti-HDAC6 relative to 9c (human recombinant HDAC6; [5]) | fold reduced potency anti-HDAC1 relative to 9c (human recombinant HDAC1; [5]) | fold reduced potency anti-HDAC2 relative to 9c (human recombinant HDAC2; [5]) |
| --- | --- | --- | --- | --- | --- | --- | --- | --- | --- | --- | --- | --- | --- | --- | --- | --- | --- | --- |
| C[C@H]1COc2c(N3CCN(C)CC3)c(F)cc3c(=O)c(C(=O)OCc4cn(CCCCCC(=O)O)nn4)cn1c23 [Compound 6a, (S)-6-(4-(((9-fluoro-3-methyl-10-(4-methylpiperazin-1-yl)-7-oxo-3,7-dihydro-2H-[1,4]oxazino[2,3,4-ij]quinoline-6-carbonyl)oxy)methyl)-1H-1,2,3-triazol-1-yl)hexanoic acid] | 10.3 ± 1.12 | 2.1 ± 0.68 | 3.9 | 4.9 | 8.2 ± 1.08 | 10.4 ± 1.87 | 175 to 178 | > 100 | 13.4 ± 1.36 | 14.2 ± 1.28 | 16.5 ± 1.63 | 12.3 ± 1.16 |  |  |  |  |  |  |
| C[C@H]1COc2c(N3CCN(C)CC3)c(F)cc3c(=O)c(C(=O)OCc4cn(CCCCCCCC(=O)O)nn4)cn1c23 [Compound 6c, (S)-8-(4-(((9-fluoro-3-methyl-10-(4-methylpiperazin-1-yl)-7-oxo-3,7-dihydro-2H-[1,4]oxazino[2,3,4-ij]quinoline-6-carbonyl)oxy)methyl)-1H-1,2,3-triazol-1-yl)octanoic acid] | 10.5 ± 1.22 | 4.7 ± 0.51 | 1.5 | 1.7 | 6.9 ± 0.83 | 7.9 ± 0.76 | 196 to 199 | > 100 | 12.7 ± 1.09 | 13.6 ± 1.16 | 15.8 ± 1.43 | 14.6 ± 1.08 |  |  |  |  |  |  |
| C[C@H]1COc2c(N3CCN(C)CC3)c(F)cc3c(=O)c(C(=O)OCc4cn(CCCCCC(=O)NO)nn4)cn1c23 [Compound 8a, (S)-(1-(6-(hydroxyamino)-6-oxohexyl)-1H-1,2,3-triazol-4-yl)methyl-9-fluoro-3-methyl-10-(4-methylpiperazin-1-yl)-7-oxo-3,7-dihydro-2H-[1,4]oxazino[2,3,4-ij]quinoline-6-carboxylate] | 3.5 ± 0.51 | 0.043 ± 0.053 | 1.7 | 3.1 | 0.075 ± 0.031 | 0.134 ± 0.049 |  | > 100 | 9.8 ± 0.87 | 8.9 ± 0.72 | 12.8 ± 1.42 | 7.7 ± 0.64 |  |  |  |  |  |  |
| C[C@H]1COc2c(N3CCN(C)CC3)c(F)cc3c(=O)c(C(=O)NCc4cn(CCCCCCCC(=O)NO)nn4)cn1c23 [Compound 9c, (S)-9-Fluoro-N-((1-(8-(hydroxyamino)-8-oxooctyl)-1H-1,2,3-triazol-4-yl)methyl)-3-methyl-10-(4-methylpiperazin-1-yl)-7-oxo-3,7-dihydro-2H-[1,4]oxazino[2,3,4-ij]quinoline-6-carboxamide] | 1.1 ± 0.23 | 0.041 ± 0.025 | 0.9 | 1.9 | 0.038 ± 0.014 | 0.076 ± 0.022 |  | > 100 | 3.6 ± 0.55 | 4.2 ± 0.38 | 8.7 ± 0.62 | 3.5 ± 0.24 |  |  |  |  |  |  |
| C[C@H]1COc2c(N3CCN(C)CC3)c(F)cc3c(=O)c(C(=O)NCc4cn(CCCCCC(=O)O)nn4)cn1c23 [Compound 7a, (S)-6-(4-((9-fluoro-3-methyl-10-(4-methylpiperazin-1-yl)-7-oxo-3,7-dihydro-2H-[1,4]oxazino[2,3,4-ij]quinoline-6-carboxamido)methyl)-1H-1,2,3-triazol-1-yl)hexanoic acid] | 9.7 ± 1.04 | 1.9 ± 0.47 | 2.4 | 3.8 | 4.6 ± 0.52 | 7.3 ± 0.93 | 179 to 182 | > 100 | 14.8 ± 1.27 | 12.8 ± 1.33 | 15.8 ± 1.48 | 13.5 ± 1.31 |  |  |  |  |  |  |
| O=C(CCCCCCC(=O)Nc1ccccc1)NO [SAHA, vorinostat, reference compound] |  |  |  |  |  |  |  |  |  |  |  |  | considerable toxicity | some extent inherent toxicity | 2.9 ± 0.18 |  |  |  |
| C[C@H]1COc2c(N3CCN(C)CC3)c(F)cc3c(=O)c(C(=O)NCc4cn(CCCCCCCC(=O)O)nn4)cn1c23 [Compound 7c, (S)-8-(4-((9-fluoro-3-methyl-10-(4-methylpiperazin-1-yl)-7-oxo-3,7-dihydro-2H-[1,4]oxazino[2,3,4-ij]quinoline-6-carboxamido)methyl)-1H-1,2,3-triazol-1-yl)octanoic acid] | 12.7 ± 1.18 | 2.7 ± 0.36 | 1.4 | 2.6 | 3.8 ± 0.46 | 6.9 ± 0.55 | 203 to 205 | > 100 | 11.3 ± 1.24 | 11.9 ± 1.06 | 13.6 ± 1.29 | 10.6 ± 0.24 |  |  |  |  |  |  |
| C[C@H]1COc2c(N3CCN(C)CC3)c(F)cc3c(=O)c(C(=O)OCc4cn(CCCCCCCC(=O)NO)nn4)cn1c23 [Compound 8c, (S)-(1-(8-(hydroxyamino)-8-oxooctyl)-1H-1,2,3-triazol-4-yl)methyl-9-fluoro-3-methyl-10-(4-methylpiperazin-1-yl)-7-oxo-3,7-dihydro-2H-[1,4]oxazino[2,3,4-ij]quinoline-6-carboxylate] | 2.3 ± 0.27 | 0.052 ± 0.026 | 2.0 | 1.3 | 0.104 ± 0.053 | 0.065 ± 0.016 |  | > 100 | 5.7 ± 0.49 | 7.4 ± 0.44 | 10.4 ± 1.13 | 6.8 ± 0.56 |  |  |  | at least 2 fold | at least 2 fold | at least 2 fold |
